The record followed here is patent US10045983B2, “Heteroaryl pyridone and aza-pyrodine compounds” (Genentech, Inc., priority 2011, dated 2018).

The nature of this assay: CD69 Whole Blood Assay (CD69 Hu Blood FACS). The class given is cell-based, human. The note with it: Lymphocyte; human whole blood, anti-IgM activated B lymphocytes, FACS; IC70; Table 2 (unit inferred); read-out: CD69 Hu Blood FACS (IC70). The method, boiled down: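 Human whole blood stimulated by crosslinking surface IgM with goat F(ab′)2 anti-human IgM; inhibition of CD69 expression on B lymphocytes measured by flow cytometry.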

`Cc1ccc(Nc2cc(-c3ccnc(N4CCn5c(cc6c5CC(C)(C)C6)C4=O)c3CO)cn(C)c2=O)nc1` [Example 281, 3-[3-(hydroxymethyl)-4-[1-methyl-5-[(5-methyl-2-pyridyl)amino]-6-oxo-3-pyridyl]-2-pyridyl]-7,7-dimethyl-1,2,6,8-tetrahydrocyclopenta[3,4]pyrrolo[3,5-b]pyrazin-4-one]: the concentration for an effect of 70% (IC70) (usually the point of the concentration-response curve where the effect stands at 70%) came to 0.718 µM.
Under `C[C@H]1CN(C2COC2)CCN1c1ccc(Nc2cc(-c3ccnc(-n4ncc5c6c(sc5c4=O)CC(C)(C)C6)c3CO)cn(C)c2=O)nc1` [Example 282, 3-[3-(hydroxymethyl)-4-[1-methyl-5-[[5-[(2S)-2-methyl-4-(oxetan-3-yl)piperazin-1-yl]-2-pyridyl]amino]-6-oxo-3-pyridyl]-2-pyridyl]-7,7-dimethyl-6,8-dihydrocyclopenta[3,4]thieno[1,3-d]pyridazin-4-one] stands 0.0174 µM; under `Cc1cc(Nc2cc(-c3ccnc(N4CCn5c(cc6c5CC(C)(C)C6)C4=O)c3CO)cn(C)c2=O)no1` [Example 283, 3-[3-(hydroxymethyl)-4-[1-methyl-5-[(5-methylisoxazol-3-yl)amino]-6-oxo-3-pyridyl]-2-pyridyl]-7,7-dimethyl-1,2,6,8-tetrahydrocyclopenta[3,4]pyrrolo[3,5-b]pyrazin-4-one], 0.143 µM; under `Cn1cc(-c2ccnc(N3CCc4c(c(F)c5n4CCCC5)C3=O)c2CO)cc(Nc2cc3n(n2)CCN(C2COC2)C3)c1=O` [Example 284, 10-fluoro-2-[3-(hydroxymethyl)-4-[1-methyl-5-[[5-(oxetan-3-yl)-6,7-dihydro-4H-pyrazolo[1,5-a]pyrazin-2-yl]amino]-6-oxo-3-pyridyl]-2-pyridyl]-3,4,6,7,8,9-hexahydropyrido[3,4-b]indolizin-1-one], 0.131 µM.
Take `Cn1cc(-c2ccnc(N3CCn4c(cc5c4CC(C)(C)C5)C3=O)c2CO)cc(Nc2cn(C3COC3)cn2)c1=O` [Example 285, 3-[3-(hydroxymethyl)-4-[1-methyl-5-[[1-(oxetan-3-yl)imidazol-4-yl]amino]-6-oxo-3-pyridyl]-2-pyridyl]-7,7-dimethyl-1,2,6,8-tetrahydrocyclopenta[3,4]pyrrolo[3,5-b]pyrazin-4-one]: the IC70 stood at 0.175 µM.
Under `Cn1cc(-c2ccnc(N3CCn4c(cc5c4CC(C)(C)C5)C3=O)c2CO)cc(Nc2ccon2)c1=O` [Example 286, 3-[3-(hydroxymethyl)-4-[5-(isoxazol-3-ylamino)-1-methyl-6-oxo-3-pyridyl]-2-pyridyl]-7,7-dimethyl-1,2,6,8-tetrahydrocyclopenta[3,4]pyrrolo[3,5-b]pyrazin-4-one] stands 0.167 µM; under `CC1c2cc(Nc3cc(-c4ccnc(N5CCn6c(cc7c6CCCC7)C5=O)c4CO)cn(C)c3=O)nn2CCN1C` (centres unmarked) [Example 287, 2-[4-[5-[(4,5-dimethyl-6,7-dihydro-4H-pyrazolo[1,5-a]pyrazin-2-yl)amino]-1-methyl-6-oxo-3-pyridyl]-3-(hydroxymethyl)-2-pyridyl]-3,4,6,7,8,9-hexahydropyrazino[1,2-a]indol-1-one], 0.127 µM.
Next, `Cc1cc(Nc2cc(-c3ccnc(-n4ncc5c6c(sc5c4=O)CC(C)(C)C6)c3CO)cn(C)c2=O)no1` [Example 288, 3-[3-(hydroxymethyl)-4-[1-methyl-5-[(5-methylisoxazol-3-yl)amino]-6-oxo-3-pyridyl]-2-pyridyl]-7,7-dimethyl-6,8-dihydrocyclopenta[3,4]thieno[1,3-d]pyridazin-4-one]: 0.229 µM.
Take `Cn1cc(-c2ccnc(N3CCn4c(cc5c4CC(C)(C)C5)C3=O)c2CO)cc(Nc2cc[nH]n2)c1=O` [Example 289, 3-[3-(hydroxymethyl)-4-[1-methyl-6-oxo-5-(1H-pyrazol-3-ylamino)-3-pyridyl]-2-pyridyl]-7,7-dimethyl-1,2,6,8-tetrahydrocyclopenta[3,4]pyrrolo[3,5-b]pyrazin-4-one]: the IC70 worked out at 0.214 µM.
For `Cn1ccc(Nc2cc(-c3ccnc(N4CCn5c(cc6c5CC(C)(C)C6)C4=O)c3CO)cn(C)c2=O)n1` [Example 290, 3-[3-(hydroxymethyl)-4-[1-methyl-5-[(1-methylpyrazol-3-yl)amino]-6-oxo-3-pyridyl]-2-pyridyl]-7,7-dimethyl-1,2,6,8-tetrahydrocyclopenta[3,4]pyrrolo[3,5-b]pyrazin-4-one], the IC70 came out at 0.113 µM.
Under `Cc1cc(Nc2cc(-c3ccnc(-n4ncc5c6c(sc5c4=O)CCCC6)c3CO)cn(C)c2=O)no1` [Example 291, 3-[3-(hydroxymethyl)-4-[1-methyl-5-[(5-methylisoxazol-3-yl)amino]-6-oxo-3-pyridyl]-2-pyridyl]-6,7,8,9-tetrahydrobenzothiopheno[2,3-d]pyridazin-4-one] stands 0.843 µM.
Consider `Cc1cc(Nc2cc(-c3ccnc(-n4ncc5c6c(sc5c4=O)CC(C)(C)C6)c3CO)cn(C)c2=O)nn1C` [Example 292, 3-[4-[5-[(1,5-dimethylpyrazol-3-yl)amino]-1-methyl-6-oxo-3-pyridyl]-3-(hydroxymethyl)-2-pyridyl]-7,7-dimethyl-6,8-dihydrocyclopenta[3,4]thieno[1,3-d]pyridazin-4-one], for which the IC70 was 0.118 µM.
Next, `Cn1cc(Nc2cc(-c3ccnc(N4CCn5c(cc6c5CC(C)(C)C6)C4=O)c3CO)cn(C)c2=O)nn1` [Example 293, 3-[3-(hydroxymethyl)-4-[1-methyl-5-[(1-methyltriazol-4-yl)amino]-6-oxo-3-pyridyl]-2-pyridyl]-7,7-dimethyl-1,2,6,8-tetrahydrocyclopenta[3,4]pyrrolo[3,5-b]pyrazin-4-one]: 0.0691 µM; `Cn1cc(-c2ccnc(N3CCn4c(cc5c4CC(C)(C)C5)C3=O)c2CO)cc(Nc2cc(C(C)(C)C)on2)c1=O` [Example 294, 3-[4-[5-[(5-tert-butylisoxazol-3-yl)amino]-1-methyl-6-oxo-3-pyridyl]-3-(hydroxymethyl)-2-pyridyl]-7,7-dimethyl-1,2,6,8-tetrahydrocyclopenta[3,4]pyrrolo[3,5-b]pyrazin-4-one]: 0.276 µM; `CCc1cc(Nc2cc(-c3ccnc(N4CCn5c(cc6c5CC(C)(C)C6)C4=O)c3CO)cn(C)c2=O)no1` [Example 295, 3-[4-[5-[(5-ethylisoxazol-3-yl)amino]-1-methyl-6-oxo-3-pyridyl]-3-(hydroxymethyl)-2-pyridyl]-7,7-dimethyl-1,2,6,8-tetrahydrocyclopenta[3,4]pyrrolo[3,5-b]pyrazin-4-one]: 0.134 µM.
Next, `COCCN1CCn2nc(Nc3cc(-c4ccnc(N5CCn6c(cc7c6CC(C)(C)C7)C5=O)c4CO)cn(C)c3=O)cc2C1` [Example 296, 3-[3-(hydroxymethyl)-4-[5-[[5-(2-methoxyethyl)-6,7-dihydro-4H-pyrazolo[1,5-a]pyrazin-2-yl]amino]-1-methyl-6-oxo-3-pyridyl]-2-pyridyl]-7,7-dimethyl-1,2,6,8-tetrahydrocyclopenta[3,4]pyrrolo[3,5-b]pyrazin-4-one]: 0.0193 µM; `CN1CCn2nc(Nc3cc(-c4ccnc(N5CCn6c(cc7c6CC(C)(C)C7)C5=O)c4CO)nn(C)c3=O)cc2C1` [Example 297, 3-[3-(hydroxymethyl)-4-[1-methyl-5-[(5-methyl-6,7-dihydro-4H-pyrazolo[1,5-a]pyrazin-2-yl)amino]-6-oxo-pyridazin-3-yl]-2-pyridyl]-7,7-dimethyl-1,2,6,8-tetrahydrocyclopenta[3,4]pyrrolo[3,5-b]pyrazin-4-one]: 0.14 µM.
